According to US8691851B2, “Lanthanide metal complexes useful in treating cancer” (National University of Singapore, priority 2009, dated 2014):

What was measured:
[1] = test system: HCT-116 colorectal tumor cells
Protocol: HCT-116 colorectal tumor cells were grafted subcutaneously onto nude mice. Tumor-bearing mice were then treated with solvent control (water) or different concentrations of (100 μg, 200 μg) C19H24N3O5S5Pr on day 1, day 5, day 9, day 12, and day 15. Tumor volumes (mm^3) were measured on day 1, day 5, day 8, day 9, day 12, day 14 and day 16. Tumor volumes in treated mice were compared with those of control mice.

LC3 II = LC3 II formation by Western blot; format: cell-based; details: SHEP-1 and SHSY5Y cells, 5 μM and 10 μM, 4 hr, 8 hr and 18 hr

Compound: CS(C)=O.CS(C)=O.[O-][n+]1ccccc1[S-].[O-][n+]1ccccc1[S-].[O-][n+]1ccccc1[S-].[Pr+3] [C19H24N3O5S5Pr, praseodymium (2-mercaptopyridine N-oxide)(dimethylsulfoxide)]
- tumor size compared to control mice ([1]; 100 μg or 200 μg on day 1, 5, 9, 12 and 15, measured to day 16): did not show a substantial increase in tumor size
- tumor growth suppression/inhibition versus control mice ([1]; 200 μg): at least 3 fold
- tumor activity suppressed/inhibited, 200 μg versus 100 μg ([1]; dosage increased from 100 μg to 200 μg): at least 2 fold
- LC3 II induction (LC3 II): induction of phosphtidylethaonolamine (PE)-conjugated form of microtubule-associated protein 1 light chain 3 (LC3 II)
